According to ChEMBL document CHEMBL1150317, “Discovery of aryl aminoquinazoline pyridones as potent, selective, and orally efficacious inhibitors of receptor tyrosine kinase c-Kit” (J Med Chem, 2008):

Experiments:
[1] = molecular target: Tyrosine-protein kinase Lck (Homo sapiens, UniProt P06239)
Description: Inhibition of Lck by TR-FRET assay

[2] = molecular target: Serine/threonine-protein kinase Sgk1 (Homo sapiens) (UniProt O00141); assay: Inhibition of SGK1 at 1 uM relative to control
[3] = molecular target: Tyrosine-protein kinase BTK (Homo sapiens) (UniProt Q06187); assay: Inhibition of BTK at 1 uM relative to control
[4] = molecular target: Interleukin-1 receptor-associated kinase 4 (Homo sapiens) (UniProt Q9NWZ3); assay: Inhibition of IRAK4 at 1 uM relative to control
[5] = molecular target: Dual specificity tyrosine-phosphorylation-regulated kinase 1A (Homo sapiens) (UniProt Q13627); assay: Inhibition of DYRK1alpha at 1 uM relative to control
[6] = molecular target: MAP kinase-activated protein kinase 2 (Homo sapiens) (UniProt P49137); assay: Inhibition of MAPKAPK2 at 1 uM relative to control
[7] = Inhibition of PKA at 1 uM relative to control
[8] = Inhibition of HGK at 1 uM relative to control
[9] = molecular target: Ribosomal protein S6 kinase alpha-1 (Homo sapiens) (UniProt Q15418); assay: Inhibition of RSK1 at 1 uM relative to control
[10] = molecular target: MAP kinase-activated protein kinase 5 (Homo sapiens) (UniProt Q8IW41); assay: Inhibition of PRAK at 1 uM relative to control
MAP kinase-activated protein kinase 5 (Homo sapiens), sequence (Q8IW41 whole entry): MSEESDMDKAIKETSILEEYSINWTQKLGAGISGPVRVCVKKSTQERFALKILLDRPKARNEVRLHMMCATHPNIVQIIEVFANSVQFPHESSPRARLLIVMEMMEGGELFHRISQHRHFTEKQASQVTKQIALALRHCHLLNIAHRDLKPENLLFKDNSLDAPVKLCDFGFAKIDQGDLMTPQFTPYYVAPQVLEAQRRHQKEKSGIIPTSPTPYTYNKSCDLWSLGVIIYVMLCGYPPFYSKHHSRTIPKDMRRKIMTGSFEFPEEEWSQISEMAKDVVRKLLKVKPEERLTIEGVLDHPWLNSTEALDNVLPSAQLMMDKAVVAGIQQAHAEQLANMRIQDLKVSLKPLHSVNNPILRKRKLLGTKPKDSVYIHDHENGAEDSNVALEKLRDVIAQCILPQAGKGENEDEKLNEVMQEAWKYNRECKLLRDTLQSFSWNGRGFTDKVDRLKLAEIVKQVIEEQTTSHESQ

[11] = molecular target: Aurora kinase A (Homo sapiens) (UniProt O14965); assay: Inhibition of AurA at 1 uM relative to control
[12] = molecular target: Insulin-like growth factor 1 receptor (Homo sapiens) (UniProt P08069); assay: Inhibition of IGFIR at 1 uM relative to control
[13] = molecular target: Serine/threonine-protein kinase PAK 2 (Homo sapiens) (UniProt Q13177); assay: Inhibition of PAK2 at 1 uM relative to control
[14] = Clearance in Sprague-Dawley rat at 1 mg/kg, iv; format: ADME, organism-based; design: dose 1 mg/kg, route intravenous; details: in vivo
[15] = molecular target: Proto-oncogene tyrosine-protein kinase Src (Homo sapiens, UniProt P12931)
Proto-oncogene tyrosine-protein kinase Src, sequence (P12931 2-536 limits assumed): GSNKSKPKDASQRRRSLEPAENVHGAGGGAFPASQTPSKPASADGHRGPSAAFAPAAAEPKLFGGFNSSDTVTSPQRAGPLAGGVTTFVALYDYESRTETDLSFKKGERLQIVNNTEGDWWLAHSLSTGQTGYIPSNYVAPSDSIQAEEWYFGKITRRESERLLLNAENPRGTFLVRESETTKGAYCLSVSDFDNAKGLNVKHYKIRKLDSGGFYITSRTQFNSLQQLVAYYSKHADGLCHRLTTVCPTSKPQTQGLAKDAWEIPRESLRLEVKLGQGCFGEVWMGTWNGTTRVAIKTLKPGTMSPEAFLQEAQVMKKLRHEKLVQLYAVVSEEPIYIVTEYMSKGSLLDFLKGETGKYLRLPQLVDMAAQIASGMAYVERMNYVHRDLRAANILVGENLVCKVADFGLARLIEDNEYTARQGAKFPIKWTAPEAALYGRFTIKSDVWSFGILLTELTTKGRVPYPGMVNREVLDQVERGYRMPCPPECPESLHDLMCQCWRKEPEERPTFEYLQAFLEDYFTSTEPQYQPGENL
Description: Inhibition of Src by TR-FRET assay

[16] = molecular target: Protein kinase C beta type (Homo sapiens) (UniProt P05771); assay: Inhibition of PKCbeta2 at 1 uM relative to control
[17] = molecular target: Protein kinase C zeta type (Homo sapiens) (UniProt Q05513); assay: Inhibition of PKCzeta at 1 uM relative to control
[18] = molecular target: RAC-beta serine/threonine-protein kinase (Homo sapiens) (UniProt P31751); assay: Inhibition of AKT2 at 1 uM relative to control
[19] = Cmax in Sprague-Dawley rat at 10 mg/kg, po; format: ADME, organism-based; design: dose 10 mg/kg, route oral; details: in vivo
[20] = molecular target: Insulin receptor (Homo sapiens) (UniProt P06213); assay: Inhibition of INSR at 1 uM relative to control
[21] = molecular target: Tyrosine-protein kinase SYK (Homo sapiens) (UniProt P43405); assay: Inhibition of SYK at 1 uM relative to control
[22] = molecular target: T1, Mast/stem cell growth factor receptor Kit (Homo sapiens, UniProt P10721)
T1 sequence (P10721 whole entry): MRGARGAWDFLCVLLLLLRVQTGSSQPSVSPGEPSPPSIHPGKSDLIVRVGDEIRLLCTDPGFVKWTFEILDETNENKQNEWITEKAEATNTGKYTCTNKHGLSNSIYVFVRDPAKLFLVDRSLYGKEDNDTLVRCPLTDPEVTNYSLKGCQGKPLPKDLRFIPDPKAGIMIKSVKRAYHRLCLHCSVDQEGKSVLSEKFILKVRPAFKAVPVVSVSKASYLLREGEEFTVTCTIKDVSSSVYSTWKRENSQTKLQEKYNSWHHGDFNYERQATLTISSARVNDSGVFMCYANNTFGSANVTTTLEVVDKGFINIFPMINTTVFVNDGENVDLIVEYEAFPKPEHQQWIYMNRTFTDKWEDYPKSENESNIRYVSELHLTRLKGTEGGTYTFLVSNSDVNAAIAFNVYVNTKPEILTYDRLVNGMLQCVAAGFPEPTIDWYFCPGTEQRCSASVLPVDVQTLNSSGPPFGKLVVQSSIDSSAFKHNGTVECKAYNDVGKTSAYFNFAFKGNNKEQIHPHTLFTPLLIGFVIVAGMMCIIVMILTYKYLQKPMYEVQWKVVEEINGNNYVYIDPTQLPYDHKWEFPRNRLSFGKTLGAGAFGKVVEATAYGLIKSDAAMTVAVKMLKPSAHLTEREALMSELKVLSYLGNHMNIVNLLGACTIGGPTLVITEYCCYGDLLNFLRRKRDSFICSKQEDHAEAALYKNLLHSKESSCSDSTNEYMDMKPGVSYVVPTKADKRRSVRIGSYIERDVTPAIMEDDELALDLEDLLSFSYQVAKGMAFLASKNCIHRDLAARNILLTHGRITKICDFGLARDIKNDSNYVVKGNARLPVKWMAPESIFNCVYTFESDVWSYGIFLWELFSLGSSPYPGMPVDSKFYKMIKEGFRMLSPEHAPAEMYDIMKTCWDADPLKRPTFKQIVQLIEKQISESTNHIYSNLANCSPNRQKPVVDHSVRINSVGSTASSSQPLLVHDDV
Description: Inhibition of SCF-induced phosphorylation of c-Kit in MO7e cells by TR-FRET assay

[23] = molecular target: Serine/threonine-protein kinase pim-2 (Homo sapiens) (UniProt Q9P1W9); assay: Inhibition of PIM2 at 1 uM relative to control
[24] = molecular target: Serine/threonine-protein kinase Chk2 (Homo sapiens) (UniProt O96017); assay: Inhibition of CHK2 at 1 uM relative to control
[25] = molecular target: Serine/threonine-protein kinase Chk1 (Homo sapiens) (UniProt O14757); assay: Inhibition of CHK1 at 1 uM relative to control
[26] = molecular target: Mitogen-activated protein kinase 1 (Homo sapiens) (UniProt P28482); assay: Inhibition of ERK2 at 1 uM relative to control
Mitogen-activated protein kinase 1 (Homo sapiens), sequence (P28482 whole entry, canonical isoform): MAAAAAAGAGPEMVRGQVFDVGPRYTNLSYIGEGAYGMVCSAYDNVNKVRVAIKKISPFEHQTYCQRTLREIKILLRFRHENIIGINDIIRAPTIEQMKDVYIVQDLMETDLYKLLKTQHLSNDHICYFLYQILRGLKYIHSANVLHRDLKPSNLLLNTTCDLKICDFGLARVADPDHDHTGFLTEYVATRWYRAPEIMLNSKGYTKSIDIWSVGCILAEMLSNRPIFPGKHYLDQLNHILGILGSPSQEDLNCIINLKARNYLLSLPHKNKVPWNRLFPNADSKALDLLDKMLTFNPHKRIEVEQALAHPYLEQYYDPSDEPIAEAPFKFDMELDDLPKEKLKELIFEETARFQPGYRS

[27] = molecular target: Casein kinase I isoform delta (Homo sapiens) (UniProt P48730); assay: Inhibition of CK1delta at 1 uM relative to control
[28] = AUC (0 to t) in Sprague-Dawley rat at 10 mg/kg, po; format: ADME, organism-based; design: dose 10 mg/kg, route oral; details: plasma
[29] = molecular target: Glycogen synthase kinase-3 beta (Homo sapiens) (UniProt P49841); assay: Inhibition of GSK3-beta at 1 uM relative to control
[30] = Half life in Sprague-Dawley rat at 10 mg/kg, po; format: ADME, organism-based; design: dose 10 mg/kg, route oral; details: in vivo
[31] = Inhibition of PKGalpha at 1 uM relative to control
[32] = Inhibition of p38 by TR-FRET assay
[33] = molecular target: Fibroblast growth factor receptor 1 (Homo sapiens) (UniProt P11362); assay: Inhibition of FGFR1 at 1 uM relative to control
[34] = Inhibition of CAMK2 at 1 uM relative to control
[35] = molecular target: Serine/threonine-protein kinase D2 (Homo sapiens) (UniProt Q9BZL6); assay: Inhibition of PKD2 at 1 uM relative to control
[36] = molecular target: Serine/threonine-protein kinase MARK1 (Homo sapiens) (UniProt Q9P0L2); assay: Inhibition of MARK1 at 1 uM relative to control
[37] = molecular target: Receptor-type tyrosine-protein kinase FLT3 (Homo sapiens) (UniProt P36888); assay: Inhibition of FLT3 at 1 uM relative to control
[38] = Inhibition of EDK2 at 1 uM relative to control
[39] = molecular target: T1, Mast/stem cell growth factor receptor Kit; remark: listed apart in the source
Description: Inhibition of c-Kit by TR-FRET assay

[40] = molecular target: Mitogen-activated protein kinase kinase kinase 7 (Homo sapiens) (UniProt O43318); assay: Inhibition of TAK1 at 1 uM relative to control
[41] = molecular target: Serine/threonine-protein kinase 3 (Homo sapiens) (UniProt Q13188); assay: Inhibition of MST2 at 1 uM relative to control
[42] = molecular target: Mitogen-activated protein kinase 3 (Homo sapiens) (UniProt P27361); assay: Inhibition of ERK1 at 1 uM relative to control
[43] = molecular target: Vascular endothelial growth factor receptor 2 (Homo sapiens, UniProt P35968)
Vascular endothelial growth factor receptor 2, sequence (P35968 whole entry): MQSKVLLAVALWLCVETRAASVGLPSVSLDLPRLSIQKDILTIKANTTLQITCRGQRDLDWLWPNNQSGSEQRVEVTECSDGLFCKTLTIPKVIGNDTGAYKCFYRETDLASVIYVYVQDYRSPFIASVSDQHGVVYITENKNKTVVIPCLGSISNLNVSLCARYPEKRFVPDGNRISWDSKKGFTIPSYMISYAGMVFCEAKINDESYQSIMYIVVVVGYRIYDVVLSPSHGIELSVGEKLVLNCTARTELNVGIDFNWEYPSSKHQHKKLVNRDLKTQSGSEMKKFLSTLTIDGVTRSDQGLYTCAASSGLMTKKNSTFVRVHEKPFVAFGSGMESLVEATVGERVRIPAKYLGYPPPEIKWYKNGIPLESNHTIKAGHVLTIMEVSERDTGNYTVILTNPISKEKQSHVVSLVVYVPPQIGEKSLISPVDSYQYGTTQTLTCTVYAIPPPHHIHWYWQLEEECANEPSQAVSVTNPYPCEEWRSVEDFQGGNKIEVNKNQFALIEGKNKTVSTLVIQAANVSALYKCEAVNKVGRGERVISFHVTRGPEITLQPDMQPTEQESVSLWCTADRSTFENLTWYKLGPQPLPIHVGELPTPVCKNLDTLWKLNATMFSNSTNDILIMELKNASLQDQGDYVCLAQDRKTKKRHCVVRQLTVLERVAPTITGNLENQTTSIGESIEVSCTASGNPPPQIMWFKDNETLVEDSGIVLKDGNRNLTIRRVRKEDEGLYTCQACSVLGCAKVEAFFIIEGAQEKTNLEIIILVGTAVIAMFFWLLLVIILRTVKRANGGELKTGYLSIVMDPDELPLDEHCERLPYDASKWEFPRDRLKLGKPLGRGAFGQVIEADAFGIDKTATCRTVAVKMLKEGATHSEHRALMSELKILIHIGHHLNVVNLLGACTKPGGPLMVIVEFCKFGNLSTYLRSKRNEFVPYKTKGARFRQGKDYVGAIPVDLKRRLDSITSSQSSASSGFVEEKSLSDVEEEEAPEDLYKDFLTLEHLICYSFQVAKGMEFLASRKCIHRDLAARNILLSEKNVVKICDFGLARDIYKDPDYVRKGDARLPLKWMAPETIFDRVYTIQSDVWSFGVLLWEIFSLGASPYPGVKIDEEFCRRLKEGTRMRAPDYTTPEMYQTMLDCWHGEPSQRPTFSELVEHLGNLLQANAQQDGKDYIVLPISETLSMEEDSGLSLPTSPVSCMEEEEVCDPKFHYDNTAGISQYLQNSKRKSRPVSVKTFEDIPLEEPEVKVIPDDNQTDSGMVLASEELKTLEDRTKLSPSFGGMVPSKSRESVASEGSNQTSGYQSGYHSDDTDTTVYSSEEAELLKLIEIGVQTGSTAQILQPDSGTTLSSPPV
Description: Inhibition of KDR by TR-FRET assay

[44] = molecular target: Hepatocyte growth factor receptor (Homo sapiens) (UniProt P08581); assay: Inhibition of MET at 1 uM relative to control
[45] = molecular target: RAF proto-oncogene serine/threonine-protein kinase (Homo sapiens) (UniProt P04049); assay: Inhibition of CRAF at 1 uM relative to control
RAF proto-oncogene serine/threonine-protein kinase (Homo sapiens), sequence (P04049 whole entry): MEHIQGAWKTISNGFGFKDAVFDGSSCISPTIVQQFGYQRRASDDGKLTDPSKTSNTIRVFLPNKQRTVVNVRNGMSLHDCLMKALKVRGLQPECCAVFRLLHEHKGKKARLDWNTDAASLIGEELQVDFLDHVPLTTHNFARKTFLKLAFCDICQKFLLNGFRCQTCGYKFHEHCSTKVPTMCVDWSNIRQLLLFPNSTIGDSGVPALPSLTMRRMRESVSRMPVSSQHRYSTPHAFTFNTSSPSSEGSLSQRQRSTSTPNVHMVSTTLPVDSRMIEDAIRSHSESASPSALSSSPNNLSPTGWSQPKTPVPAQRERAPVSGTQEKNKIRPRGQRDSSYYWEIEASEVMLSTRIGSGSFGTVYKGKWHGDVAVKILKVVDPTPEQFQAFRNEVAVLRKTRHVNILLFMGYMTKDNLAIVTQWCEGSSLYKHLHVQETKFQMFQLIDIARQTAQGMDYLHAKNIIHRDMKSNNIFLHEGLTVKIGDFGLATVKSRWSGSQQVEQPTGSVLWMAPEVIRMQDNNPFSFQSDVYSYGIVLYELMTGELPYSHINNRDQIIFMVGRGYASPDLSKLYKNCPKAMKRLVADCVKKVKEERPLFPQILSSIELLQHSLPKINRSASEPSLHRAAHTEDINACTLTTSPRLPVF

[46] = molecular target: 5'-AMP-activated protein kinase subunit beta-1 (Homo sapiens) (UniProt Q9Y478); assay: Inhibition of AMPK at 1 uM relative to control
[47] = Volume of distribution at steady state in Sprague-Dawley rat at 1 mg/kg, iv; format: ADME, organism-based; design: dose 1 mg/kg, route intravenous; details: in vivo, read-out: Vdss
[48] = molecular target: Tyrosine-protein kinase ABL1 (Homo sapiens, UniProt P00519); assay: Inhibition of Abl by TR-FRET assay
[49] = molecular target: Rho-associated protein kinase 2 (Homo sapiens) (UniProt O75116); assay: Inhibition of ROCK2 at 1 uM relative to control
[50] = molecular target: Calcium/calmodulin-dependent protein kinase type IV (Homo sapiens) (UniProt Q16566); assay: Inhibition of CAMK4 at 1 uM relative to control
[51] = Oral bioavailability in Sprague-Dawley rat at 10 mg/kg; format: ADME, organism-based; details: in vivo
[52] = molecular target: RAC-alpha serine/threonine-protein kinase (Homo sapiens) (UniProt P31749); assay: Inhibition of AKT1 at 1 uM relative to control
[53] = molecular target: Ribosomal protein S6 kinase beta-1 (Homo sapiens) (UniProt P23443); assay: Inhibition of P70S6 at 1 uM relative to control
[54] = Half life in Sprague-Dawley rat at 2 mg/kg, po; format: ADME, organism-based; design: dose 2 mg/kg, route oral; details: in vivo
[55] = AUC (0 to t) in Sprague-Dawley rat at 2 mg/kg, po; format: ADME, organism-based; design: dose 2 mg/kg, route oral; details: plasma
[56] = Oral bioavailability in Sprague-Dawley rat at 2 mg/kg; format: ADME, organism-based; details: in vivo
[57] = Cmax in Sprague-Dawley rat at 2 mg/kg, po; format: ADME, organism-based; design: dose 2 mg/kg, route oral; details: in vivo

Tyrosine-protein kinase Lck, sequence (P06239 whole entry): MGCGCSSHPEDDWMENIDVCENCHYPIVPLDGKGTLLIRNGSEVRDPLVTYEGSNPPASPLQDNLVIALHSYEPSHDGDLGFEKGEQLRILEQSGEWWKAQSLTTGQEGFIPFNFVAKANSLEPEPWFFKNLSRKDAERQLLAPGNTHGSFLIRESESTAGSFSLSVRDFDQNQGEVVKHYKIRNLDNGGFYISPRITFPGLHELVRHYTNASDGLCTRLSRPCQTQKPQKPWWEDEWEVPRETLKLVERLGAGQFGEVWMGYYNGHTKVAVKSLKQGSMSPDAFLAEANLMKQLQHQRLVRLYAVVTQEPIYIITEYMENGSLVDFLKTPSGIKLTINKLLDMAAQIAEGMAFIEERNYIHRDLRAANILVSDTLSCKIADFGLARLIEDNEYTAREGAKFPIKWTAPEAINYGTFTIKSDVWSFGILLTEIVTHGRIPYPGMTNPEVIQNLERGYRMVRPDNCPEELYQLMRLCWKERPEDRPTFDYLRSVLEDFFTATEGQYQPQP

Compound: Cc1ccn(-c2ccc(-c3ncco3)cc2)c(=O)c1-c1ccc2nc(N)ncc2c1
- IC50 [1]: 7.8 µM
- inhibition [2]: > 50%
- inhibition [3]: > 50%
- inhibition [4]: > 50%
- inhibition [5]: > 50%
- inhibition [6]: > 50%
- inhibition [7]: > 50%
- inhibition [8]: > 50%
- inhibition [9]: > 50%
- inhibition [10]: > 50%
- inhibition [11]: > 50%
- inhibition [12]: > 50%
- inhibition [13]: > 50%
- clearance [14]: 7.67 mL/min/kg
- IC50 [15]: > 5 µM
- inhibition [16]: > 50%
- inhibition [17]: > 50%
- inhibition [18]: > 50%
- Cmax [19]: 1230 ng/mL
- inhibition [20]: > 50%
- inhibition [21]: > 50%
- IC50 [22]: 0.016 µM
- inhibition [23]: > 50%
- inhibition [24]: > 50%
- inhibition [25]: > 50%
- inhibition [26]: > 50%
- inhibition [27]: > 50%
- AUC(0-t) [28]: 9860 ng·h/mL
- inhibition [29]: > 50%
- half-life [30]: 2.6 h
- inhibition [31]: > 50%
- IC50 [32]: 40 µM
- inhibition [33]: > 50%
- inhibition [34]: > 50%
- inhibition [35]: > 50%
- inhibition [36]: > 50%
- inhibition [37]: > 50%
- inhibition [38]: > 50%
- IC50 [39]: 0.022 µM
- inhibition [40]: > 50%
- inhibition [41]: > 50%
- inhibition [42]: > 50%
- IC50 [43]: > 5 µM
- inhibition [44]: > 50%
- inhibition [45]: > 50%
- inhibition [46]: > 50%
- Vd [47]: 1.59 L/kg
- IC50 [48]: > 25 µM
- inhibition [49]: > 50%
- inhibition [50]: > 50%
- bioavailability [51]: 39%
- inhibition [52]: > 50%
- inhibition [53]: > 50%

Compound: Cc1ccc(-n2ccc(C)c(-c3ccc4nc(N)ncc4c3)c2=O)cc1F
- IC50 [1]: 25 µM
- half-life [54]: 2.9 h
- AUC(0-t) [55]: 1310 ng·h/mL
- clearance [14]: 32.5 mL/min/kg
- IC50 [15]: 25 µM
- IC50 [22]: 0.012 µM
- bioavailability [56]: 100%
- IC50 [32]: 40 µM
- IC50 [43]: > 5 µM
- Vd [47]: 2.39 L/kg
- Cmax [57]: 280 ng/mL
